Here are results for 1 compound from paper PMC6241247, “Development and Application of an UHPLC-MS/MS Method for Comparative Pharmacokinetic Study of Eight Major Bioactive Components from Yin Chen Hao Tang in Normal and Acute Liver Injured Rats” (Evidence-based Complementary and Alternative Medicine : eCAM, 2018).

Data set [1] is described as follows: Plasma pharmacokinetics after oral administration of YCHT in model (CCl4-induced acute liver injury) rats, UHPLC-MS/MS. Here is the method: The quality control (QC) and plasma samples were analyzed by an Agilent 6470 triple quadrupole LC–MS system (Agilent Technologies, Inc., Santa Clara, CA, USA), which consists of an Agilent 1290 Infinity II system connected to a triple quadrupole MS analyzer with an Agilent Jet Stream technologies electrospray ionization (ESI) interface. The Agilent 1290 LC system is equipped with degasser (G7116B), high speed pump (G7120A) and multisampler (G7167B). The samples (2 μL) were injected into the LC system. A MassHunter workstation was applied for LC–MS control and data acquisition.
Chromatographic separation was conducted with a CAPCELL PAK ADME (2.1 mm × 100 mm, 3 μm; Shiseido Co., Ltd., Tokyo, Japan). The mobile phase included 0.1% formic acid (A) and methanol (B), and the flow rate was 0.3 mL/min. Iridoid glycosides and anthraquinones were detected in the isocratic elution, which was kept 80% B for 5.5 min in the negative mode. The others were separated in the positive mode with another gradient program, which was maintained at 45% B for 0.5 min, then increased to 95% B in 2 min, and maintained at 95% B until 4.5 min, and the post time is 2 min.
The optimal parameters for the ESI interface were as follows: nebulizer, 45 psi; dry gas, 10 L/min; dry temp, 350°C; sheath gas, 11 L/min; sheath gas temp, 350°C; capillary voltage, 4000 V (in the positive mode) and 3500 V (in the negative mode); and delta EMV, 200 V. The MS parameters for iridoid glycosides and anthraquinones were improved in the negative mode, and the MS parameters for the other analytes were improved in positive mode.
The animals were randomly divided into the control group (n = 6) and the model group (n = 6): the model rats, i.e., acute liver injury rats, were induced by intraperitoneal injections of CCl4 diluted with olive oil (1:1, v/v) at a dose of 1.5 mL/kg.bw every day for three days, and the rats in the control group were administered with olive oil.
After being thawed at room temperature, 100 μL plasma was put in a 1.5 mL centrifuge tube, and then 100 μL IS solution and 300 μL acetonitrile was added. After the mixture was vortexed for 1 min, it was centrifuged at 12000 rpm for 10 min at 4°C to precipitate the protein. Then the supernatant was transferred to another clean centrifuge tube, and evaporated to dryness under nitrogen stream, the residue was reconstituted in 50 μL methanol-water (1:1, v/v). After centrifuging at 12000 rpm for 10 min at 4°C again, a 2 μL aliquot of supernatant was injected for LC–MS/MS analysis.
The validated method was used for the pharmacokinetic study. Standard diet was withheld over night before oral administration of YCHT, but with free access to water. And YCHT (60 g/kg) was administered to the rats by gastric perfusion, equivalent to 10.09 mg/kg of scoparone, 0.49 mg/kg scopoletin, 17.16 mg/kg of geniposide, 9.86 mg/kg of rhein, 2.66 mg/kg of aloe-emodin, 2.24 mg/kg of chrysophanol, 0.83 mg/kg of emodin, and 0.58 mg/kg of physcion.
A series of blood samples (0.3 mL) were collected from the rats' postorbital venous plexuses at 0 (pre-dose), 5, 10, 15, 30, 45, 60, 90, 120, 240, 480, 600, 720 and 1440 min, and put into heparinized tubes. The heparinized plasma was immediately centrifuged to separate at 3000 g for 10 min and stored at −80°C before experiments. The analytes' concentrations in plasma were determined by LC–MS/MS methods described above.
The plasma concentrations were expressed as arithmetic mean ± standard deviation (SD). And the mean concentration–time curves were calculated and plotted by DAS (version 3.0, Bio Guider Co., Shanghai, China), and the PK parameters consist of elimination half-life (t1/2), area under the plasma concentration-time curve (AUC), and mean residence time (MRT). The maximum plasma concentrations (Cmax) and corresponding peak time (Tmax) were obtained from the observed data directly.

Data set [2] in a line: Plasma pharmacokinetics after oral administration of YCHT in control (normal) rats, UHPLC-MS/MS. In kind it is in vivo, Sprague-Dawley rats. The source says:
The validated method was used for the pharmacokinetic study.
P<0.05 represented statistical significance.

The subject of a further data set is P-glycoprotein (P-gp). The arrangement: method as in PMID 25776492, PMID 26121397. Particulars: cited from earlier work.
Setting [3] is: Sprague-Dawley, rat, in vivo, po, 60 g/kg.
The mark [4] stands for this setting: model (CCl4 liver injured) rats, oral YCHT 60 g/kg, plasma, n = 6.
Where [5] appears, read: control rats, oral YCHT 60 g/kg, plasma, n = 6.

For `COc1cc2ccc(=O)oc2cc1O` [Scopoletin], the “Fr (relative bioavailability)” value in data set [1] (Fr = (AUCmodel/AUCcontrol)∗100%, oral YCHT 60 g/kg) was 123.38%. Also, in data set [1] (setting [3]), the CL/F (as a rule, the apparent clearance, not corrected for the fraction that reaches the circulation) was 1100 mL/min/kg; the Cmax (in general, the maximum level reached in the sampled fluid or tissue) was 3.34 ± 1.19 ng/mL; the MRT inf (commonly the average time that molecules of a dose stay in the body) was 5.56 ± 0.63 h; the MRT last (commonly the average time that molecules of a dose stay in the body) came out at 4.81 ± 0.43 h. Further, in data set [1] (setting [3]), the Tmax (usually the time at which the peak concentration occurs) worked out at 7.8 ± 3 min and the half-life – broadly, the time needed for the level to fall by half in the phase considered – is 2.2 ± 0.82 h. In data set [1] (setting [4]), the “AUC0–t” value is given as 7.23 ± 1.84 ug/L∗h and the “AUC0–∞” value stood at 7.83 ± 2.00 ug/L∗h. In addition, in data set [2] (setting [3]), the CL/F was 1180 mL/min/kg, the concentration peaked (Cmax) at 3.53 ± 0.67 ng/mL, the MRT inf came out at 6.9 ± 4.2 h and the MRT last was found to be 4.4 ± 0.44 h. Besides, in data set [2] (setting [3]), the Tmax stood at 0.19 ± 0.04 h and the half-life is 3.62 ± 3.85 h. Further, in data set [2] (setting [5]), the “AUC0–t” value came out at 5.86 ± 0.50 ug/L∗h and the “AUC0–∞” value was 7.41 ± 2.53 ug/L∗h. In addition, in the data set with P-glycoprotein (P-gp), the P-gp substrate result was “not P-gp substrates”.
